Measured values: EP0212822A1, “A composition containing a plant growth regulator and an alkanol and a method of using the same” (ICI AMERICAS INC., priority 1985, dated 1987)

What was measured:
[1] = test system: Siberian Elm; assay: Trunk injection of trees (Brown method), Retardation and Uniformity Ratings; format: in vivo, Ulmus pumila (Siberian Elm); set-up: key to Uniformity Rating (U): 0 = no effect from PGR; 1 = poor; 2 = fair; 3 = acceptable; 4 = very good; 5 = excellent; settings: 10 g (II) in 1 liter methanol
Description: A method of tree injection and apparatus employed herein is discussed in G. K. Brown, "Prototype Equipment for Commercial Pressure - Injection of Aqueous Growth Regulators Into Trees," Journal of Arboriculture, Vol. 4, pp. 7-13, 1978, and in the references noted therein. Under the Brown method the number of injection holes and total injection volume (TIV) of PGR solution is determined by measuring the diameter of the tree at DBH and using the following formulae: […]
(§1) The examples which follow exemplify the improvements obtained by this invention. However, these examples are not intended to limit the scope of the invention. In Examples 1-41, the subject trees were injected at a distance approximately one foot from the soil line by drilling 7/32 inch diameter holes to a 2 inch depth at a 30-45° angle tangential to the trunk with a pressure injector (150 psi) purchased from the Asplundh Tree Expert Co., Company No. 346-3502. The results are expressed in terms of Retardation and Uniformity Ratings. The Retardation rating scale is as follows: • 0 = no retardataion • 1 = 1-20% retardation • 2 = 21-40% retardation • 3 = 41-60% retardation • 4 = 61-80% retardation • 5 = 81-100% retardation
(§2) The Uniformity Rating is a measure of the consistency of response to the treatment between different branches of the tree. The Uniformity scale employed is as follows: • 0 = no effect from PGR • 1 = poor • 2 = fair • 3 = acceptable • 4 = very good • 5 = excellent
10 (0.034 moles) grams of (2RS,3RS)-1-(4-chlorophenyl)-4,4-dimethyl-2-1,2,4-triazol-1-yl)pen- tan-3-ol (II) of the formula [drawing 41] was dissolved in 1 liter of methanol at room temperature and was stirred until the solution was clear, approximately 20 minutes.
In these examples, the number of injection holes, volume per injection hole and total injection volume in ml was determined from the DBH in accordance' with the Brown method.

[2] = Solubility in methanol water mixtures (HPLC and UV absorption); format: physicochemical
Description: An excess of compound of formula (II) was shaken with methanol water mixtures for a minimum of 4 hours. Samples were passed through a micropore filter to remove undissolved solid, and then centrifuged to remove any emulsified material. The resulting saturated solutions were analyzed by both HPLC and UV absorption against known standard solutions. […] In water alone, solubility is only 35 mg 1^-1 (ppm). Thus, formulations of formula (II) in methanol are low in viscosity when injected, and the PGR will rapidly precipitate within the trunk as the methanol becomes diluted with transpiration water.

[3] = test system: Water Oak; assay: Trunk injection, holes at 4 inch intervals, Retardation and Uniformity Ratings; format: in vivo, Quercus nigra (Water Oak); set-up: key to Uniformity Rating (U): 0 = no effect from PGR; 1 = poor; 2 = fair; 3 = acceptable; 4 = very good; 5 = excellent; settings: 38 ml/hole
Description: as §1, §2
10 (0.034 moles), 20 (0.068 moles) and 40 grams (0.136 moles) of (2RS, 3RS)-1-(4-chlorophenyl)-4,4-dimethyl-2-l,2,4-triazol-l-yl)pentan-3-ol (PGR) were dissolved in 1,1 and 1 liter, respectively, of methanol at room temperature and was stirred until the solution was clear, approximately 20 to 60 minutes. In these examples, the injection holes were placed at approximate 4 inch intervals.

[4] = test system: Malus communis (Apple); assay: Trunk injection, percent of growth based upon a control; format: in vivo; settings: 35 days after treatment
Description: as §1
(2RS, 3RS)-1-(4-chlorophenyl-4,4-dimethyl-2,-1,2,4-triazol-1-yl)pentan-3-ol (PGR) was dissolved in 1 liter of solvent at room temperature and the resulting solution was stirred until clear, approximately 20 to 30 minutes. Two equal aliquots of the resulting solution were injected into two injection holes of the trunk of Malus communis (Apple) having a trunk diameter at the point of injection approximately 4 to 5 inches. The injection holes were approximately 12 inches above the soil surface. The percent of growth, based upon a control, was measured 35 days after treatment.

[5] = test system: Sycamore; assay: Trunk injection, holes at 8 inch intervals, Retardation and Uniformity Ratings; format: in vivo, Platanus occidentalis (Sycamore); set-up: key to Uniformity Rating (U): 0 = no effect from PGR; 1 = poor; 2 = fair; 3 = acceptable; 4 = very good; 5 = excellent; settings: 75 ml/hole
Description: as §1, §2
10 (0.034 moles), 20 (0.068 moles) and 40 grams (0.136 moles) of (2RS, 3RS)-1-(4-chlorophenyl)-4,4-dimethyl-2-1,2,4-triazol-1-yl)pentan-3-ol (PGR) was dissolved in 1,1 and 1 liter, respectively, of methanol at room temperature and was stirred until the solution was clear, approximately 20 to 60 minutes. In these examples, the injection holes were placed at approximate 8 inch intervals.

[6] = week 14 after treatment, listed as 1, 12 in. DBH tree, 229 ml per tree
[7] = week 14 after treatment, listed as 2, 17 in. DBH tree, 432 ml per tree
[8] = week 14 after treatment, listed as 3, 13 in. DBH tree, 268 ml per tree
[9] = week 14 after treatment, listed as 4, 11 in. DBH tree, 192 ml per tree
[10] = week 14 after treatment, listed as 5, 15 in. DBH tree, 119 ml per tree
[11] = week 14 after treatment, listed as 6, 11 in. DBH tree, 192 ml per tree
[12] = week 67 after treatment, listed as 1, 12 in. DBH tree, 229 ml per tree
[13] = week 67 after treatment, listed as 2, 17 in. DBH tree, 432 ml per tree
[14] = week 67 after treatment, listed as 3, 13 in. DBH tree, 268 ml per tree
[15] = week 67 after treatment, listed as 4, 11 in. DBH tree, 192 ml per tree
[16] = week 67 after treatment, listed as 5, 15 in. DBH tree, 119 ml per tree
[17] = week 67 after treatment, listed as 6, 11 in. DBH tree, 192 ml per tree
[18] = week 24, 10 g PGR in 1 liter methanol
[19] = week 56, 10 g PGR in 1 liter methanol
[20] = week 24, 20 g PGR in 1 liter methanol
[21] = week 56, 20 g PGR in 1 liter methanol

For `CC(C)(C)[C@@H](O)[C@@H](Cc1ccc(Cl)cc1)n1cncn1` (racemic) [Formula (II), (2RS,3RS)-1-(4-chlorophenyl-4,4-dimethyl-2-1,2,4-triazol-1-yl)pentan-3-ol], the “Retardation Rating (R)” value [1, 6] was 3 (3 = 41-60% retardation), the “Uniformity Rating (U)” value [1, 6] was 4 and the “Retardation Rating (R)” value [1, 7] was 3 (3 = 41-60% retardation). For the same compound, the “Uniformity Rating (U)” value [1, 7] was 3, the “Retardation Rating (R)” value [1, 8] was 4 (4 = 61-80% retardation) and the “Uniformity Rating (U)” value [1, 8] was 4. For the same compound, the “Retardation Rating (R)” value [1, 9] was 4 (4 = 61-80% retardation), the “Uniformity Rating (U)” value [1, 9] was 4 and the “Retardation Rating (R)” value [1, 10] was 3 (3 = 41-60% retardation). The “Uniformity Rating (U)” value [1, 10] was 5, the “Retardation Rating (R)” value [1, 11] was 3 (3 = 41-60% retardation) and the “Uniformity Rating (U)” value [1, 11] was 4. For the same compound, the “Retardation Rating (R)” value [1, 12] was 5 (5 = 81-100% retardation), the “Uniformity Rating (U)” value [1, 12] was 5 and the “Retardation Rating (R)” value [1, 13] was 4 (4 = 61-80% retardation). For the same compound, the “Uniformity Rating (U)” value [1, 13] was 3, the “Retardation Rating (R)” value [1, 14] was 4 (4 = 61-80% retardation) and the “Uniformity Rating (U)” value [1, 14] was 4. For the same compound, the “Retardation Rating (R)” value [1, 15] was 5 (5 = 81-100% retardation), the “Uniformity Rating (U)” value [1, 15] was 5 and the “Retardation Rating (R)” value [1, 16] was 5 (5 = 81-100% retardation). The “Uniformity Rating (U)” value [1, 16] was 5, the “Retardation Rating (R)” value [1, 17] was 5 (5 = 81-100% retardation) and the “Uniformity Rating (U)” value [1, 17] was 5. For the same compound, the solubility at 4 h ([2]; in water alone) was 35 µg/mL, the solubility at 4 h ([2]; organic solvent or mixture, 10 % Methanol in water) was 53 µg/mL and the solubility at 4 h ([2]; organic solvent or mixture, 20 % Methanol in water) was 89 µg/mL. For the same compound, the solubility at 4 h ([2]; organic solvent or mixture, 50 % Methanol in water) was 1200 µg/mL, the solubility at 4 h ([2]; organic solvent or mixture, 100 % Methanol) was 56000 µg/mL and the solubility at 4 h ([2]; water (0% methanol), organic solvent or mixture, 0 % Methanol) was 35 µg/mL. For the same compound, the “Retardation Rating (R)” value [3, 18] was 5 (5 = 81-100% retardation), the “Uniformity Rating (U)” value [3, 18] was 5 and the “Retardation Rating (R)” value [3, 19] was 5 (5 = 81-100% retardation). The “Uniformity Rating (U)” value [3, 19] was 5, the “Growth, % of Control” value ([4]; 2 g PGR in 1 liter Water, total inj. vol. not given) was 84 % of Control and the “Growth, % of Control” value ([4]; 2.5 g PGR in 1 liter Ethanol, total inj. vol. 200 ml) was 58 % of Control. The “Growth, % of Control” value ([4]; 5 g PGR in 1 liter Ethanol, total inj. vol. 100 ml) was 59 % of Control, the “Growth, % of Control” value ([4]; 5 g PGR in 1 liter Ethanol, total inj. vol. 200 ml) was 58 % of Control and the “Growth, % of Control” value ([4]; 10 g PGR in 1 liter Ethanol, total inj. vol. 50 ml) was 70 % of Control. For the same compound, the “Growth, % of Control” value ([4]; 10 g PGR in 1 liter Ethanol, total inj. vol. 100 ml) was 76 % of Control, the “Growth, % of Control” value ([4]; 10 g PGR in 1 liter Ethanol, total inj. vol. 200 ml) was 56 % of Control and the “Growth, % of Control” value ([4]; 10 g PGR in 1 liter Methanol, total inj. vol. 200 ml) was 59 % of Control. The “Growth, % of Control” value ([4]; 10 g PGR in 1 liter Water, total inj. vol. 50 ml) was 100 % of Control, the “Growth, % of Control” value ([4]; 10 g PGR in 1 liter Water, total inj. vol. 100 ml) was 103 % of Control and the “Growth, % of Control” value ([4]; 20 g PGR in 1 liter Ethanol, total inj. vol. 25 ml) was 79 % of Control. For the same compound, the “Growth, % of Control” value ([4]; 20 g PGR in 1 liter Ethanol, total inj. vol. 50 ml) was 82 % of Control, the “Growth, % of Control” value ([4]; 20 g PGR in 1 liter Ethanol, total inj. vol. 100 ml) was 60 % of Control and the “Growth, % of Control” value ([4]; 20 g PGR in 1 liter Methanol, total inj. vol. 100 ml) was 60 % of Control. The “Growth, % of Control” value ([4]; 40 g PGR in 1 liter Ethanol, total inj. vol. 25 ml) was 77 % of Control, the “Growth, % of Control” value ([4]; 40 g PGR in 1 liter Ethanol, total inj. vol. 50 ml) was 72 % of Control and the “Growth, % of Control” value ([4]; 40 g PGR in 1 liter Methanol, total inj. vol. 50 ml) was 76 % of Control. For the same compound, the “Growth, % of Control” value ([4]; 40 g PGR in 1 liter Methanol, total inj. vol. 100 ml) was 52 % of Control, the “Growth, % of Control” value ([4]; 50 g PGR in 1 liter Ethanol, total inj. vol. 10 ml) was 90 % of Control and the “Growth, % of Control” value ([4]; 80 g PGR in 1 liter Methanol, total inj. vol. 25 ml) was 68 % of Control. For the same compound, the “Retardation Rating (R)” value [5, 20] was 3 (3 = 41-60% retardation), the “Uniformity Rating (U)” value [5, 20] was 4 and the “Retardation Rating (R)” value [5, 21] was 4 (4 = 61-80% retardation). For the same compound, the “Uniformity Rating (U)” value [5, 21] was 4.
